Structures are written as SMILES. Calls of active or inactive are those of the source. Rule as the data show it, for most assays here: actives have a measured EC50 and inactives only a lower limit.

Among the data in ChEMBL document CHEMBL1201862, “PubChem BioAssay data set” (2004) are EC50 and AC50 values, retold here.

A short description of assay [1]: cells. It is filed as functional, cell-based.
Assay [2] in a line: cells. It is filed as functional, cell-based. The source holds these as a separate data set.
In another assay the test system is INS1. The assay can be described thus: INS-1E survival protection against cytokine death – cell-based, luminescence, retest, dose response (AID 449756).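 Also: cell death triggered by IL-1 beta plus TNF-alpha plus IFN-gamma mixture; protective hits raise ATP signal compared with cytokine alone wells.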 The class given is functional. As to conditions: Rattus norvegicus.
Assay [3] in a line: Luminescence Cell-Based Dose Retest to Confirm Inhibitors of Cancer Stem Cells. [Related pubchem assays (depositor defined):AID2717, AID2721]. It is filed as functional, Homo sapiens. As to conditions: Homo sapiens.
For assay [4], the target named is T1, RNA-binding protein pos-1 (Caenorhabditis elegans, UniProt G5EF15).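 Also: purified POS-1 fused to maltose binding protein made in E. coli; potency of compounds blocking POS-1 binding to fluorescent RNA.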
T1 sequence (G5EF15 whole entry): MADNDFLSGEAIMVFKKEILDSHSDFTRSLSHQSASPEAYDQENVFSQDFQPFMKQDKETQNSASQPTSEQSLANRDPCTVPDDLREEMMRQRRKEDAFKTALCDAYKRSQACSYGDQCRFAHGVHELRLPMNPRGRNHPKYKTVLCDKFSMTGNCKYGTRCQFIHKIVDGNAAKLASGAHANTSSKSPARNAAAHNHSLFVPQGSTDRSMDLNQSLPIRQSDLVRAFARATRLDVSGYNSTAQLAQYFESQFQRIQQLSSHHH
Briefly: disruptors of C. elegans POS-1 RNA interaction – biochemical, fluorescence polarization, dose response (AID 1964). (In fluorescence polarisation assays a small probe gives low polarisation when free and higher when bound to something large.)

For assay [5], the target named is T2, Zinc finger protein mex-5 (Caenorhabditis elegans, UniProt Q9XUB2).
T2 sequence (Q9XUB2 whole entry): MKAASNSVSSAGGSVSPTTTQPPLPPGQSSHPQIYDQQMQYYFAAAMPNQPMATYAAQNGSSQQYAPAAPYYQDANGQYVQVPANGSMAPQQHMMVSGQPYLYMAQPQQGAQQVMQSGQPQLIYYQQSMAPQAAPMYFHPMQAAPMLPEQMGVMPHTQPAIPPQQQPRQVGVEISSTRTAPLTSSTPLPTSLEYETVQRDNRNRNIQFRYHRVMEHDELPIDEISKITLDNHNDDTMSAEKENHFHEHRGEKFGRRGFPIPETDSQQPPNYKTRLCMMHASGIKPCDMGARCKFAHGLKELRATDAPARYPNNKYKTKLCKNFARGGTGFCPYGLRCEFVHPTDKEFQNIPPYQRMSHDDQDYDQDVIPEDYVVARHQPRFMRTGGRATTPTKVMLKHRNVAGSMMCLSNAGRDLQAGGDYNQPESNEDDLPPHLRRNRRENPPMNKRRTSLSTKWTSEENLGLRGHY
Briefly: potency of MEX-5 RNA-binding blockers – biochemical, C. elegans, fluorescence polarization, dose response (AID 1960).

For another assay, the target named is T3, Streptokinase A (Streptococcus pyogenes serotype M1, UniProt P10520).
T3 sequence (P10520 whole entry): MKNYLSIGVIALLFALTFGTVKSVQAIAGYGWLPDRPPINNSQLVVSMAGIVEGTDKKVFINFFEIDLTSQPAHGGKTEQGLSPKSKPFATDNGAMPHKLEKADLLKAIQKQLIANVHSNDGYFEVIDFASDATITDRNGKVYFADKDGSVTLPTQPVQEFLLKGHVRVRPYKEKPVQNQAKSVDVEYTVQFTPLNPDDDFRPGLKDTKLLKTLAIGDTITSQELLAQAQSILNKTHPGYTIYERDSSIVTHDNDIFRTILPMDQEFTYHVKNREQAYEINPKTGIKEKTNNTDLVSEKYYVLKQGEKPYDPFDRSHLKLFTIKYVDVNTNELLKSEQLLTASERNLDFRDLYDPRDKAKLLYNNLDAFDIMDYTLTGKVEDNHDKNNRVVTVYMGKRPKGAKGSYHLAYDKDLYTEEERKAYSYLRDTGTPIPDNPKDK
Briefly: viability-normalized secreted streptokinase activity reduction – plasminogen activation absorbance, OD405, dose response (AID 1914).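 Also: secreted streptokinase activity via plasminogen activation per viability signal from cell pellet.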 The class given is functional, Streptococcus pyogenes M1 GAS.

Assay [6] has as its system Streptococcus sp. 'group A'. The assay can be described thus: Streptococcus pyogenes SK(-)GAS viability under kanamycin – luminescence, BacTiterGlo, confirmation, counter-screen for streptokinase expression inhibitor project, dose response (AID 1900). It is filed as functional, organism-based. As to conditions: Streptococcus sp. 'group A'.
The test system of a further assay is Streptococcus. Briefly: GAS UMAA2166 growth inhibition – luminescence, BacTiterGlo, counter-screen for streptokinase expression inhibitor project, dose response (AID 1915).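 Also: potency for reduction of bacterial viability or growth.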 It is filed as functional, organism-based. As to conditions: Streptococcus. On the technique in general: The purpose of a counterscreen is to sort out artefacts and off-target activity.

`C=CCc1cccc(/C=N/NC(=O)c2ccc3[nH]cnc3c2)c1O`: the EC50 was 11.8 µM (active) in “cells [1]” and 44.5 µM (active) in the assay “cells [2]”. Moreover, the AC50 with INS1 was 1.61 µM (active); in assay [3], 3.81 µM (active).

On to `N=c1c(C(=O)NC2CCCCC2)cc2c(=O)n3ccccc3nc2n1CCc1ccccc1`, for which the EC50 was 15.2 µM (active) in assay [4] and 16.1 µM (active) in assay [5].

For the compound `COc1ccccc1Nc1nc2nonc2nc1N1CCCCC1C` (centres undefined), the figures for the EC50 in assay [4] and in assay [5] were 95.5 µM (active) and > 300 µM (not active), respectively.

As for `O=C(/C=C/c1cn(-c2ccccc2)nc1-c1ccccc1)Nc1ccc(C(=O)O)cc1`, the EC50 at Streptokinase A is > 150 µM (not active); in the assay “cells [1]”, > 350 µM (not active); in the assay “cells [2]”, 24.8 µM (active); in assay [6] it was 6.15 µM (active); in the assay with Streptococcus, 15.5 µM (active).

Consider `CNc1c(N)n(Cc2ccccc2)c(=O)[nH]c1=O`, for which the EC50 is > 300 µM (not active) in assay [4] and 92.1 µM (inconclusive) in [5].

Consider `Clc1cccc(CSc2nc3cc[nH]cc-3n2)c1`, for which the EC50 in assay [4] and in [5] was > 300 µM (not active) each time.

Consider `NC(=Nc1ccc(N)cc1)C(N)=Nc1ccc(N)cc1`, for which the EC50 in [4] was > 300 µM (not active); in assay [5], 42.8 µM (active).

Take `Cc1ccc2[nH]c3c(c2c1)CN(C(=O)CN1CCN(C(=O)c2ccco2)CC1)CC3`: the EC50 in assay [4] is 112 µM (active); in assay [5] it was 68 µM (active).

For `Cc1n[nH]c(S/C(=C/c2ccc(-c3cccc(Cl)c3)o2)C(=O)O)n1`, the EC50 in assay [4] is > 300 µM (not active); in [5], 69.5 µM (active).

As for `Cc1cc(O)cc2c1C(=O)/C(=C/c1ccco1)O2`, the EC50 in assay [4] was 15.8 µM (active); in assay [5], > 300 µM (not active).

`O=C1CSC(=S)N1N1C(=O)c2cccc([N+](=O)[O-])c2C1=O`: the results for the EC50 in [4] and in [5] were 24.9 µM (active) and 24.8 µM (active), respectively.

On to `CC(C)(C)OC(=O)NCCCCC1=CC2=CC(=O)C(C)(OC(=O)c3ccco3)C(=O)C2=CO1` (centres undefined), for which the EC50 in assay [4] was 35.5 µM (active); in assay [5], 30.3 µM (active).

Usually EC50 stands for the concentration at which the effect is half-maximal. A word on the AC50: it is the concentration giving half of the maximal activity seen.
